According to US20220079944A1, “2H-INDAZOLE DERIVATIVES AS THERAPEUTIC AGENTS FOR BRAIN CANCERS AND BRAIN METASTASES” (BETA PHARMA, INC., priority 2019, published 2022):
Read-outs that look alike come from different tables or passages of the source.

Key:
[1] = Brain concentration and brain/plasma ratio in mouse after 10 mg/kg p.o.; assay type: in vivo; settings: PO 10 mg/kg
p-glycoprotein (P-gp) = p-glycoprotein (P-gp) (Homo sapiens, UniProt P08183); settings: background statement; cited from earlier work
MDR1 (P-gp) = test: in vitro; settings: dog, MDCK-MDR1
Protocol: MDR1-MDCK cell monolayers were grown to confluence on collagen-coated, microporous membranes in 12-well assay plates. […] The permeability assay buffer was Hanks' balanced salt solution (HBSS) containing 10 mM HEPES and 15 mM glucose at a pH of 7.4. The buffer in the receiver chamber also contained 1% bovine serum albumin. The dosing solution concentration was 5 μM of test article in the assay buffer+/−1 μM valspodar. Cells were first pre-incubated for 30 minutes with HBSS containing +/−1 μM valspodar. Cell monolayers were dosed on the apical side (A-to-B) or basolateral side (B-to-A) and incubated at 37° C. with 5% CO2 in a humidified incubator. Samples were taken from the donor and receiver chambers at 120 minutes. Each determination was performed in duplicate. The flux of lucifer yellow was also measured post-experimentally for each monolayer to ensure no damage was inflicted to the cell monolayers during the flux period. All samples were assayed by LC-MS/MS using electrospray ionization.

[2] = brain, po, 10 mg/kg, individual animal R1, read-out: Brain Concentration, R1 + 3n
[3] = brain, po, 10 mg/kg, individual animal R2, read-out: Brain Concentration, R2 + 3n
[4] = brain, po, 10 mg/kg, individual animal R3, read-out: Brain Concentration, R3 + 3n
[5] = brain, po, 10 mg/kg, mean, read-out: Brain Concentration, Mean PO
[6] = plasma, po, 10 mg/kg, individual animal R1, read-out: Plasma Concentration, R1 + 3n
[7] = plasma, po, 10 mg/kg, individual animal R2, read-out: Plasma Concentration, R2 + 3n
[8] = plasma, po, 10 mg/kg, individual animal R3, read-out: Plasma Concentration, R3 + 3n
[9] = plasma, po, 10 mg/kg, mean, read-out: Plasma Concentration, Mean PO

Sequence of p-glycoprotein (P-gp) (P08183 whole entry): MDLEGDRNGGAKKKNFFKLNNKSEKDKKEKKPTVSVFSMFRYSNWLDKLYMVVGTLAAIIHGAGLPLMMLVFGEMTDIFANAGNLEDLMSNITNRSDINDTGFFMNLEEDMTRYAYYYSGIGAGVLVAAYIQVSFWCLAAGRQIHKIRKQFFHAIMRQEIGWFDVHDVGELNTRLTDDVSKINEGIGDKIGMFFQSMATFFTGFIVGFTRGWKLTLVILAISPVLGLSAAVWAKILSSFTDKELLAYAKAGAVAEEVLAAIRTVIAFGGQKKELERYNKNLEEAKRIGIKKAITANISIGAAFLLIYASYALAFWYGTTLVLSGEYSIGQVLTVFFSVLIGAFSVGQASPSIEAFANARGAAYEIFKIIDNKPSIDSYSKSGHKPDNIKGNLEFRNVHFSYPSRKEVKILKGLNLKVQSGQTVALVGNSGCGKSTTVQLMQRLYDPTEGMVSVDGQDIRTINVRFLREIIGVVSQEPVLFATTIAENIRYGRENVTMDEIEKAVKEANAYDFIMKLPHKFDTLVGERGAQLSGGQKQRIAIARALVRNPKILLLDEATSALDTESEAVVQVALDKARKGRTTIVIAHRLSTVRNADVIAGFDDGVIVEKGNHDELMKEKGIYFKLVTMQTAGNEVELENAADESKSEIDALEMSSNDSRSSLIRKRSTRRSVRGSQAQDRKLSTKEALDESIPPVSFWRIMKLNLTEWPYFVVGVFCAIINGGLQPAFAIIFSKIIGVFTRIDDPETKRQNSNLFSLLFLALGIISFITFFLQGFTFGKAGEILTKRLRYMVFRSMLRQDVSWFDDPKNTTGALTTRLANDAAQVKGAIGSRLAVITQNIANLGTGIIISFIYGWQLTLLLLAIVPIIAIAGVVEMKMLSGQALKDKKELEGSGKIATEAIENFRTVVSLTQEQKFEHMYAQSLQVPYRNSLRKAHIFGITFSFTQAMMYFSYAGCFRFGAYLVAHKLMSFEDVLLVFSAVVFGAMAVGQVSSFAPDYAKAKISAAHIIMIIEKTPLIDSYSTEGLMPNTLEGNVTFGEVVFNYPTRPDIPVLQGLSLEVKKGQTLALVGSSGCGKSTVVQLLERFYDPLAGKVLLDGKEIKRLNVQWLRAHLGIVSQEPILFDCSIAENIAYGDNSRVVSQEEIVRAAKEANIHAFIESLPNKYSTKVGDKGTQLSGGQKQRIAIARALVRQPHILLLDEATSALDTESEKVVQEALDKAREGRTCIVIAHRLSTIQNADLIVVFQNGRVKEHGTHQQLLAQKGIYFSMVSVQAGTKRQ

In the case of CCN1CCN(Cc2ccc(Nc3ncc(F)c(-c4cc(F)c5nc(C)n(C(C)C)c5c4)n3)nc2)CC1 [abemaciclib, reference compound], the “AUC0-last Ratio, brain/plasma (B/P) ratio” value ([1]; brain AUC0-last / plasma AUC0-last, 10 mg/kg) is reported as 0.432, the “Brain AUC0-last” value ([1]; brain, from mean concentrations) is reported as 4085 ng·h/g and the AUC(0-t) ([1]; plasma, from mean concentrations, read-out: Plasma AUC0-last) is reported as 9.45 µg·h/mL. It also gave a concentration at 2 h [1, 2] of 216 ng/g, a concentration at 2 h [1, 3] of 326 ng/g and a concentration at 2 h [1, 4] of 302 ng/g. For the same compound, the concentration at 2 h [1, 5] was 282 ng/g, the concentration at 4 h [1, 2] was 452 ng/g and the concentration at 4 h [1, 3] was 370 ng/g. The concentration at 4 h [1, 4] was 469 ng/g, the concentration at 4 h [1, 5] was 430 ng/g and the concentration at 8 h [1, 2] was 421 ng/g. It also gave a concentration at 8 h [1, 3] of 277 ng/g, a concentration at 8 h [1, 4] of 341 ng/g and a concentration at 8 h [1, 5] of 347 ng/g. For the same compound, the concentration at 24 h [1, 2] was 6.51 ng/g, the concentration at 24 h [1, 3] was 14.8 ng/g and the concentration at 24 h [1, 4] was 10.6 ng/g. The concentration at 24 h [1, 5] was 10.6 ng/g, the Kp ([1]; brain, po, 10 mg/kg, brain AUC0-last / plasma AUC0-last, read-out: AUC0-last Ratio, brain/plasma (B/P) ratio) was 0.43 and the concentration at 2 h [1, 6] was 0.633 µg/mL. The concentration at 2 h [1, 7] was 1.05 µg/mL, the concentration at 2 h [1, 8] was 0.821 µg/mL and the concentration at 2 h [1, 9] was 0.836 µg/mL. For the same compound, the concentration at 4 h [1, 6] was 0.7 µg/mL, the concentration at 4 h [1, 7] was 0.744 µg/mL and the concentration at 4 h [1, 8] was 0.963 µg/mL. For the same compound, the concentration at 4 h [1, 9] was 0.802 µg/mL, the concentration at 8 h [1, 6] was 1.02 µg/mL and the concentration at 8 h [1, 7] was 0.707 µg/mL. For the same compound, the concentration at 8 h [1, 8] was 0.78 µg/mL, the concentration at 8 h [1, 9] was 0.837 µg/mL and the concentration at 24 h [1, 6] was 0.0115 µg/mL. For the same compound, the concentration at 24 h [1, 7] was 0.0467 µg/mL, the concentration at 24 h [1, 8] was 0.0166 µg/mL and the concentration at 24 h [1, 9] was 0.0249 µg/mL. The P-gp substrate (p-glycoprotein (P-gp)) was “p-glycoprotein (P-gp) substrates”.
For CC(C)NCC(O)COc1cccc2ccccc12 (stereo not drawn) [Propranolol], the Papp (MDR1 (P-gp)) was 128 nm/s.
C[C@H]1O[C@@H](O[C@H]2[C@@H](O)C[C@H](O[C@H]3[C@@H](O)C[C@H](O[C@H]4CC[C@@]5(C)[C@H](CC[C@@H]6[C@@H]5C[C@@H](O)[C@]5(C)[C@@H](C7=CC(=O)OC7)CC[C@]65O)C4)O[C@@H]3C)O[C@@H]2C)C[C@H](O)[C@@H]1O [Digoxin] gave a Papp A→B (MDR1 (P-gp)) of 0.5 nm/s, a Papp B→A (MDR1 (P-gp)) of 139 nm/s and an efflux ratio (MDR1 (P-gp)) of 254.
In the case of CC(=O)c1c(C)c2cnc(Nc3ccc(N4CCNCC4)cn3)nc2n(C2CCCC2)c1=O [palbociclib], the P-gp substrate (p-glycoprotein (P-gp)) is listed as “p-glycoprotein (P-gp) substrates”.
